Reference: ChEMBL document CHEMBL3259753, “Synthesis, structure-activity relationships and biological evaluation of dehydroandrographolide and andrographolide derivatives as novel anti-hepatitis B virus agents” (Bioorg Med Chem Lett, 2014)

Experiments:
[1] = Cytotoxicity against human HepG2.2.15 cells by MTT assay; format: cell-based, HepG2 2.2.15
[2] = system: Hepatitis B virus; assay: Antiviral activity against HBV infected in human HepG2.2.15 cells assessed as inhibition of hepatitis B e antigen secretion by ELISA; format: functional, organism-based; details: HepG2 2.2.15
[3] = system: Hepatitis B virus; assay: Antiviral activity against HBV infected in human HepG2.2.15 cells assessed as inhibition of DNA replication; format: functional, organism-based; details: HepG2 2.2.15
[4] = system: Hepatitis B virus; assay: Antiviral activity against HBV infected in human HepG2.2.15 cells assessed as inhibition of hepatitis B surface antigen secretion by ELISA; format: functional, organism-based; details: HepG2 2.2.15
[5] = Selectivity index, ratio of CC50 for human HepG2.2.15 cells to IC50 for HBV infected in human HepG2.2.15 cells assessed as inhibition of DNA replication; format: functional
[6] = Selectivity index, ratio of CC50 for human HepG2.2.15 cells to IC50 for HBV infected in human HepG2.2.15 cells assessed as inhibition of hepatitis B surface antigen secretion; format: functional
[7] = Selectivity index, ratio of CC50 for human HepG2.2.15 cells to IC50 for HBV infected in human HepG2.2.15 cells assessed as inhibition of hepatitis B e antigen secretion; format: functional

Compound	CC50 [1] [µM]	IC50 [2] [µM]	IC50 [3] [µM]	IC50 [4] [µM]	Ratio CC50/IC50 [5]	Ratio CC50/IC50 [6]	Ratio CC50/IC50 [7]
C=C1CC[C@@H]2[C@](C)(CO)[C@H](O)CC[C@@]2(C)[C@@H]1/C=C/C1=CC(C(C)(C)O)OC1=O (stereo not given in full)	122	562	394				
C=C1CC[C@@H]2[C@](C)(COC(=O)c3cccnc3)[C@H](O)CC[C@@]2(C)[C@@H]1C/C=C1\C=COC1=O	2050	> 974	16.3	> 1140	126		
C=C1CC[C@H]2[C@@](C)(CCC(=O)[C@@]2(C)C=O)[C@@H]1C/C=C1/C(=O)OC[C@H]1O	155	815	51.3	951	3		
C=C1CC[C@@H]2[C@](C)(COC(C)=O)[C@H](O)CC[C@@]2(C)[C@@H]1/C=C/C1=CCOC1=O	225	2230	69.5	565	3.2		
C=C1CC[C@@H]2[C@](C)(COC(=O)CCC(=O)O)[C@H](OC(=O)CCC(=O)O)CC[C@@]2(C)[C@@H]1C/C=C1\C=COC1=O	32	243	47.6	1160			
C=C1CC[C@@H]2[C@](C)(COC(=O)/C=C/c3cccc(OC)c3)[C@H](O)CC[C@@]2(C)[C@@H]1/C=C/C1=CCOC1=O	> 1970	1480	> 513	> 1970			
C=C1CC[C@@H]2[C@](C)(CO)[C@H](OC(=O)CCCC)CC[C@@]2(C)[C@@H]1C/C=C1\C=COC1=O	126	208	69.8	625	1.82		
C[C@H](Cn1cnc2c(N)ncnc21)OCP(=O)(O)O [TENOFOVIR ANHYDROUS]	> 1720		0.71	1390	>2417.3	>1.2	>1.4
C=C1CC[C@@H]2[C@](C)(COC(=O)/C=C/c3cccc(Cl)c3)[C@H](O)CC[C@@]2(C)[C@@H]1/C=C/C1=CCOC1=O	147	59.8	136	207			2.5
C=C1CC[C@@H]2[C@](C)(COC(=O)/C=C/c3cc(OC)c(OC)c(OC)c3)[C@H](OC(=O)/C=C/c3cc(OC)c(OC)c(OC)c3)CC[C@@]2(C)[C@@H]1C/C=C1\C=COC1=O	> 1830	> 253	> 458	> 1830			
C=C1CC[C@@H]2[C@](C)(COC(=O)CCCC)[C@H](OC(=O)CCCC)CC[C@@]2(C)[C@@H]1C/C=C1\C=COC1=O	757	1390	455	1010			
C=C1CC[C@@H]2[C@](C)(COC(=O)c3ccccc3C(=O)O)[C@H](OC(=O)c3ccccc3C(=O)O)CC[C@@]2(C)[C@@H]1C/C=C1\C=COC1=O	> 2040	218	22		>92.8		>9.4
C=C1CC[C@@H]2[C@](C)(CO)[C@H](OC(=O)/C=C/c3cc(OC)c(OC)c(OC)c3)CC[C@@]2(C)[C@@H]1C/C=C1\C=COC1=O	211	518	53.1	753	3		
C=C1CC[C@@H]2[C@](C)(COC(=O)c3cccnc3)[C@H](OC(=O)c3cccnc3)CC[C@@]2(C)[C@@H]1/C=C/C1=CCOC1=O	> 1920	> 1920	> 664	> 1920			
C=C1CC[C@@H]2[C@](C)(COC(=O)c3cc(=O)c4ccccc4o3)[C@H](O)CC[C@@]2(C)[C@@H]1/C=C/C1=CCOC1=O	171	177	36.6		4.7		1
C=C1CC[C@H]2[C@@](C)(CCC(=O)[C@@]2(C)C=O)[C@@H]1C/C=C1\C=COC1=O	964		169	518	5.7	1.9	
C=C1CC[C@@H]2[C@](C)(CO)[C@H](OC(=O)c3cccs3)CC[C@@]2(C)[C@@H]1C/C=C1\C=COC1=O	257	> 2200	8.1	41	31.8	6.2	
C=C1CC[C@@H]2[C@](C)(COC(=O)c3ccccc3)[C@H](O)CC[C@@]2(C)[C@@H]1C/C=C1\C=COC1=O	82	123	20.6	880	4		
C=C1CC[C@@H]2[C@](C)(CO)[C@H](OC(=O)c3ccccc3)CC[C@@]2(C)[C@@H]1C/C=C1\C=COC1=O	103	118	21.6	877	4.8		
